# Test results as given in PMC4032624 (Molecular cell, 2013).
# Assays:
# [1] = system: γH2Ax; experiment: γH2Ax level by Western blot in U2OS cells; format: cell-based; details: UNC0638 with etoposide
# [2] = system: G9a/GLC; experiment: H3K9me2 level in U2OS cells; format: cell-based; details: incubation with inhibitor vs solvent DMSO
# [3] = system: pT2609 and γH2Ax foci; experiment: Confocal immunofluorescence of pT2609-DNA-PKcs and γH2Ax foci in U2OS cells; details: UNC0638 together with ETO, Pearson correlation coefficient, n=5
smiles,measurement,setting,value
COc1cc2c(NC3CCN(C(C)C)CC3)nc(C3CCCCC3)nc2cc1OCCCN1CCCC1 [UNC0638],effect on etoposide-induced γH2Ax pattern,[1],not affected
same,H3K9me2 level,[2],decreased
same,colocalization pattern of γH2Ax and pT2609 foci,[3],did not significantly alter
